Laboratory results reported in patent publication US20200187499A1, “SUBSTITUTED BENZYL-4-AMINOPICOLINIC ESTERS AND PYRIMIDINO-4-CARBOXYLIC ESTERS, METHODS FOR THE PRODUCTION THEREOF, AND USE THEREOF AS HERBICIDES AND PLANT GROWTH REGULATORS” (Bayer CropScience Aktiengesellschaft, priority 2017, published 2020).

Assays:
Type in all cases: in vivo
[1] = test system: ABUTH; assay: Pre-emergence herbicidal action; conditions: Table 2, pre-emergence (PE), 320 g/ha, scored after 3 weeks
How it was run: (§1)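 Weed seeds sown in sandy loam and covered with soil; compounds formulated as WP or EC applied to the covering soil surface as aqueous suspension/emulsion at 600 to 800 l/ha water plus 0.2% wetting agent. Greenhouse growth; damage scored visually after 3 weeks against untreated controls (100% = plants dead, 0% = like control).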

[2] = test system: ALOMY; assay: Pre-emergence herbicidal action; conditions: Table 2, pre-emergence (PE), 320 g/ha, scored after 3 weeks
How it was run: as §1

[3] = test system: AMARE; assay: Pre-emergence herbicidal action; conditions: Table 2, pre-emergence (PE), 320 g/ha, scored after 3 weeks
How it was run: as §1

[4] = test system: ECHCG; assay: Pre-emergence herbicidal action; conditions: Table 2, pre-emergence (PE), 320 g/ha, scored after 3 weeks
How it was run: as §1

[5] = test system: POLCO; assay: Pre-emergence herbicidal action; conditions: Table 2, pre-emergence (PE), 320 g/ha, scored after 3 weeks
How it was run: as §1

[6] = test system: SETVI; assay: Pre-emergence herbicidal action; conditions: Table 2, pre-emergence (PE), 320 g/ha, scored after 3 weeks
How it was run: as §1

[7] = test system: VIOTR; assay: Pre-emergence herbicidal action; conditions: Table 2, pre-emergence (PE), 320 g/ha, scored after 3 weeks
How it was run: as §1

[8] = test system: ABUTH; assay: Post-emergence herbicidal action; conditions: Table 5, post-emergence (PO), 320 g/ha, assessed after about 3 weeks
How it was run: (§2)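 After sowing in sandy loam, plants grew 2 to 3 weeks in the greenhouse, then at the one-leaf stage received the formulated compound as a foliar aqueous spray (600 to 800 l/ha, 0.2% wetting agent). Effect is given as visual percent damage relative to untreated controls.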

[9] = test system: AMARE; assay: Post-emergence herbicidal action; conditions: Table 5, post-emergence (PO), 320 g/ha, assessed after about 3 weeks
How it was run: as §2

[10] = test system: ECHCG; assay: Post-emergence herbicidal action; conditions: Table 5, post-emergence (PO), 320 g/ha, assessed after about 3 weeks
How it was run: as §2

[11] = test system: PHBPU; assay: Post-emergence herbicidal action; conditions: Table 5, post-emergence (PO), 320 g/ha, assessed after about 3 weeks
How it was run: as §2

[12] = test system: POLCO; assay: Post-emergence herbicidal action; conditions: Table 5, post-emergence (PO), 320 g/ha, assessed after about 3 weeks
How it was run: as §2

[13] = test system: SETVI; assay: Post-emergence herbicidal action; conditions: Table 5, post-emergence (PO), 320 g/ha, assessed after about 3 weeks
How it was run: as §2

[14] = test system: STEME; assay: Post-emergence herbicidal action; conditions: Table 5, post-emergence (PO), 320 g/ha, assessed after about 3 weeks
How it was run: as §2

[15] = test system: VIOTR; assay: Post-emergence herbicidal action; conditions: Table 5, post-emergence (PO), 320 g/ha, assessed after about 3 weeks
How it was run: as §2

Row | SMILES | Herbicidal action against ABUTH [1] [%] | Herbicidal action against ALOMY [2] [%] | Herbicidal action against AMARE [3] [%] | Herbicidal action against ECHCG [4] [%] | Herbicidal action against POLCO [5] [%] | Herbicidal action against SETVI [6] [%] | Herbicidal action against VIOTR [7] [%] | Herbicidal action against ABUTH [8] [%] | Herbicidal action against AMARE [9] [%] | Herbicidal action against ECHCG [10] [%] | Herbicidal action against PHBPU [11] [%] | Herbicidal action against POLCO [12] [%] | Herbicidal action against SETVI [13] [%] | Herbicidal action against STEME [14] [%] | Herbicidal action against VIOTR [15] [%]
1 | Nc1cc(-c2ccc3occc3c2)nc(C(=O)OCc2ccc(F)cc2)c1Cl [Example I-05] | 50 | 30 | 90 | 90 | 90 | 90 | 50 | 100 | 100 | 100 | 80 | 30 | 100 | 100 | 90
2 | Nc1cc(-c2ccc3ccsc3c2)nc(C(=O)OCc2ccc(F)cc2)c1Cl [Example I-07, 4-fluorobenzyl 4-amino-6-(1-benzothiophen-6-yl)-3-chloropyridine-2-carboxylate] | 80 | 90 | 100 | 100 | 100 | 90 | 50 | 100 | 100 | 90 | 80 | 80 | 100 | 0 | 60
3 | Nc1cc(-c2ccc3sccc3c2)nc(C(=O)OCc2cccc(F)c2)c1Cl [Example I-09] | 70 | 20 | 90 | 100 | 90 | 90 | 60 | 100 | 100 | 100 | 80 | 70 | 90 | 100 | 90
4 | Nc1cc(-c2ccc3ccsc3c2)nc(C(=O)OCc2cccc(F)c2)c1Cl [Example I-10] | 30 | 70 | 100 | 100 | 0 | 90 | 40 | 100 | 100 | 90 | 80 | 100 | 90 | 100 | 70
5 | Nc1cc(-c2ccc3occc3c2)nc(C(=O)OCc2ccc(F)c(F)c2F)c1Cl [Example I-13] | 30 | 80 | 100 | 90 | 100 | 100 | 30 | 100 | 100 | 90 | 80 | 100 | 90 | 100 | 100
6 | Nc1cc(-c2ccc3sccc3c2)nc(C(=O)OCc2ccc(C(F)(F)F)cc2)c1Cl [Example I-16] | 80 | 30 | 80 | 100 | 70 | 80 | 30 | 100 | 100 | 90 | 80 | 90 | 90 | 80 | 90
7 | Nc1cc(-c2ccc3sccc3c2)nc(C(=O)OCc2ccc(F)cc2F)c1Cl [Example I-18] | 40 | 30 | 100 | 100 | 10 | 70 | 20 | 100 | 100 | 100 | 80 | 80 | 90 | 80 | 90
